One test addresses T1, human PGD receptor (Homo sapiens, UniProt Q13258).
T1 sequence (Q13258 1-359): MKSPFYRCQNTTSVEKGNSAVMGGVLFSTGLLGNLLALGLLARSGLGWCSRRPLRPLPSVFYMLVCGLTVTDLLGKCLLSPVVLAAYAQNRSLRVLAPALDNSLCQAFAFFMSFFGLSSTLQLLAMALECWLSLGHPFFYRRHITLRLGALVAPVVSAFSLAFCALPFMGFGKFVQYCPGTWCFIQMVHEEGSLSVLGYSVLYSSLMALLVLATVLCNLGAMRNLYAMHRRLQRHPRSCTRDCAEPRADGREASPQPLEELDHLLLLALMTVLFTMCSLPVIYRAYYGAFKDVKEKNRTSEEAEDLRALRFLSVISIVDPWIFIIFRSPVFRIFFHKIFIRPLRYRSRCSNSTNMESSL
The test is described as follows: cAMP antagonism test on the human prostaglandin D receptor (HTRF cAMP detection). Type of test: cell-based. The note with it: selectivity towards hDP, IC50 measured by cAMP antagonism test. The method in brief: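 HTRF competition read-out (665/620 nm ratio ×10000), where higher FRET means less cAMP, i.e. antagonism. Compounds (0.8 nM–16.5 μM) were preincubated 20 min at RT with cells and cAMP-d2, PGD2 (3× solution, 6 nM) in IBMX-containing PBS added for 30 min at RT, then cells lysed 20 min.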
For orientation: In TR-FRET formats the signal depends on donor and acceptor labels being close together.

Test [1] has as its target EP4 subtype of the human PGE2 receptor (Homo sapiens, UniProt P35408). Kind of test: cAMP antagonism test on the human EP4 receptor (HTRF cAMP detection). The format is cell-based. The conditions noted are these: selectivity towards hEP4, IC50 measured by cAMP antagonism test. The method in brief:
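Competitive HTRF cAMP read-out (cAMP-d2 vs Eu-cryptate anti-cAMP antibody, 665/620 nm ratio) on lysed human EP4 cells. Compound (0.8 nM–16.5 μM) applied 20 min at RT before 60 min PGE2 challenge (3× solution 0.3 nM, IBMX present); 20 min lysis precedes reading.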

Test [2] relates to female cynomolgus monkeys (Macaca Fascicularis). Kind of test: In-vivo action on fertility in non-human primates (mating study). The conditions noted are these: 6 months, 10 mg/kg (Example 17 once daily, Example 56 twice daily). Here is the method:
4.4 In-Vivo Action on Fertility in Non-Human Primates (Cynomolgus):
In order to study the effect of substances on fertility, mating studies can be performed in monkeys (Jensen et al. Contraception 81 (2010) 165-171). For this, the test substances are administered to female cynomolgus monkeys (Macaca Fascicularis) which are being kept in groups, then the animals are mated with a male animal. Matings are checked for by sperm detection in daily vaginal smears. Pregnancies resulting therefrom are identified by hormone determinations and ultrasound examinations. Through the changes in the serum oestradiol concentrations during the cycle, (rise before the midcycle LH peak), the fertile phase within a cycle of the individual animals can be determined Matings in this fertile period are described as “timed matings” (matings in the fertile phase). Apart from the absolute number of pregnancies occurring, the effect on the fertility can also be expressed as pregnancies per “timed matings”.
To test the action of EP2 receptor antagonists on fertility in monkeys, Examples 17 and 56 according to the invention were administered over 6 months, dissolved in 0.5 ml castor oil. Example 17 was administered once daily at a dosage of 10 mg/kg (n=10 animals), while Example 56 was administered twice daily at a dosage of 10 mg/kg (n=9 animals). Only the vehicle was administered to a control group (n=10 animals). In the first month of the treatment, no male animal was placed with the female animals. After this, female and male animals were kept together over 5 months, with detection of pregnancies and cycle monitoring.

The target in test [3] is EP2 subtype of the human PGE2 receptor (Homo sapiens, UniProt P43116). Kind of test: cAMP antagonism test on the human EP2 receptor (HTRF cAMP detection). The conditions noted are these: hEP2 receptor, read-out: Antagonism hEP2 IC50. Type of test: cell-based. The method in brief: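 Read-out is a competitive HTRF for cAMP: lysate cAMP displaces cAMP-d2 from Eu cryptate-labelled antibody, and antagonism raises the 665/620 nm ratio. Compound (0.8 nM–16.5 μM) added to EP2 cells 20 min at RT before 60 min PGE2 challenge (3× stock 1.5 nM) with IBMX, followed by 20 min lysis.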

The test system of another test is cumulus-oocyte complexes. Kind of test: Cumulus expansion test in vitro. Type of test: cell-based, mice (strain: B6D2F1). The note with it: Mus musculus, 0.3 μM PGE2 for stimulation; for inhibition at 1 µM: read-out: % reduction at 1 μM (reduction in the cumulus expansion); for inhibition at 0.5 µM: read-out: % reduction at 0.5 μm (reduction in the cumulus expansion). Here is the method:
4.2. Cumulus Expansions Test In Vitro In immature female mice (strain: B6D2F1 from Charles River), at an age of 14-18 days, the folliculogenesis was induced by a single administration (intraperitoneal) of 10 IU of PMSG (pregnant mare serum gonadotropin; Sigma G-4877, Lot 68H0909). 47-50 hours after the injection, the ovaries were removed and the cumulus-oocyte complexes removed. At this stage, the cumulus complex is not yet expanded. The cumulus-oocyte complexes were now incubated for 20-24 hours with prostaglandin E2 (PGE) (0.3 μM), vehicle control (ethanol) or test substances. Medium: alpha-MEM medium with 0.1 mM IBMX, pyruvate (0.23 mM), glutamine (2 mM), pen/strep 100 IU/ml pen. and 100 μg/ml strep.), HSA (8 mg/ml) and foetal bovine serum (FBS, 10%). The cumulus expansion was then established through the subdivision into four stages (after Vanderhyden et al. Dev Biol. 1990 August; 140(2):307-317).

Chain of EP4 subtype of the human PGE2 receptor (P35408 whole entry): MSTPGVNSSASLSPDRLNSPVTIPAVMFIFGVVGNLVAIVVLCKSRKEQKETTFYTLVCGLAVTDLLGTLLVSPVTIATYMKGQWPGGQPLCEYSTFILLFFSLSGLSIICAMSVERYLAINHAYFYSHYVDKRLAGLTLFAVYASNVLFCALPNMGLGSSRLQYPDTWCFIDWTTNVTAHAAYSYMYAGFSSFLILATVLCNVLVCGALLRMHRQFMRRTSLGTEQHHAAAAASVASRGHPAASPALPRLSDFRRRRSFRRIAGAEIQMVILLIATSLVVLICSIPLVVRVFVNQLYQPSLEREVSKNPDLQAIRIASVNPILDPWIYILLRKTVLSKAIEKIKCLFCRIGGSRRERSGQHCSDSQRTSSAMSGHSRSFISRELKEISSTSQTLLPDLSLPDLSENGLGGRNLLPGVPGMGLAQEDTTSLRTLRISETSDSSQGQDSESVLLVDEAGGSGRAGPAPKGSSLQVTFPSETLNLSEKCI
Chain of EP2 subtype of the human PGE2 receptor (P43116 whole entry): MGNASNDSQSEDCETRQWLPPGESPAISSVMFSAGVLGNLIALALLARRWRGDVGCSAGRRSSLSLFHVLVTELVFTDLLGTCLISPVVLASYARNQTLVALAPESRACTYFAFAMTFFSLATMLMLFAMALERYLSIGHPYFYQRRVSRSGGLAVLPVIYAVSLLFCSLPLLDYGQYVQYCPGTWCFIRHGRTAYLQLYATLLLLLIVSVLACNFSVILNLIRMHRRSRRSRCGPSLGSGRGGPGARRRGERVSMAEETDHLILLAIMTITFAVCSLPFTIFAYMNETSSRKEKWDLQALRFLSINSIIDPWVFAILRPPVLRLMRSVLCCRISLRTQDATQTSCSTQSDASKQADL

Take `COCCNC(=O)c1ccc2nn(CC3CCN(C(=O)c4ccc(Cl)cc4)CC3)cc2c1C` [Example 56, 2-{[1-(4-chlorobenzoyl)piperidin-4-yl]methyl}-N-(2-methoxyethyl)-4-methyl-2H-indazol-5-carboxamide]: the “Selectivity hEP2/hDP” value on human PGD receptor is recorded as “xxx (xxx > 100)”. Also, the “Selectivity hEP2/hEP4” value in test [1] was “xxx (xxx > 100)”. In test [2], the “% Pregnancies/"timed mating"” value came to 12% and the Pregnancies is reported as 2. Also, the IC50 in test [3] was 13.1 nM.

Take `COCCNC(=O)c1ccc2nn(CC3CCN(C(=O)c4ccc(-c5ccc(F)cc5)cc4)CC3)cc2c1C` [Example 5, 2-({1-[(4′-fluorobiphenyl-4-yl)carbonyl]piperidin-4-yl}methyl)-N-(2-methoxy-ethyl)-4-methyl-2H-indazol-5-carboxamide]: on human PGD receptor, the “Selectivity hEP2/hDP” value is on record as “xxx (xxx > 100)”. In test [1], the “Selectivity hEP2/hEP4” value is reported as “xxx (xxx > 100)”. Besides, in the test with cumulus-oocyte complexes, the inhibition at 1 µM is 59% and the inhibition at 0.5 µM amounted to 56%. Besides, the IC50 in test [3] came to 5.11 nM.

`COCCNC(=O)c1ccc2nn(CC3CCN(C(=O)c4ccc(Oc5ccc(C(F)(F)F)cn5)cc4)CC3)cc2c1C` [Example 345, N-(2-methoxyethyl)-4-methyl-2-{[1-(4-{[5-(trifluoromethyl)pyridin-2-yl]oxy}-benzoyl)piperidin-4-yl]methyl}-2H-indazol-5-carboxamide]: the “Selectivity hEP2/hDP” value on human PGD receptor is on record as “xxx (xxx > 100)”. In addition, in test [1], the “Selectivity hEP2/hEP4” value was “xxx (xxx > 100)”. For the same compound, in the test on cumulus-oocyte complexes, the inhibition at 1 µM amounted to 36% and the inhibition at 0.5 µM is 18%. Moreover, the IC50 in test [3] turned out to be 6.26 nM.

As a reminder, the IC50 is the concentration at which inhibition is half-maximal.

(Values after patent publication US9062041B2 (Bayer Intellectual Property GmbH, priority 2011, dated 2015).)
